Measured values from patent publication US11813305B2, “Endoplasmic reticulum stress as a predictive tool in cancer therapy and a combination therapy for the treatment of cancer” (IMMUNE SYSTEM KEY LTD., priority 2016, dated 2023).
Square brackets hold non-standard residues; d marks the D form. Peptide text beside a SMILES is read from it.

Key:
[1] = human, in vivo
Experimental: The dose escalation study followed a traditional “3+3” scheme and included doses of 6, 12, 24, 48, and 96 mg/m^2 intravenous (i.v.) dTCApFs, 3 times/week in consecutive 28-day cycles. In all 3-patient cohorts, there were 2-4 weeks between the first dose for the first and second patients, and ≥1 week for the third patient. New dose levels started after follow up of ≥28 days for 3 patients at the previous level. MTD was defined as the highest dose level at which ≥1 of 3 subjects experience a DLT during their first cycle of treatment. […] In addition, PK parameters, including area under the curve (AUC), maximal plasma concentration (Cmax), and plasma half-life (t1/2) were determined. PK parameters were estimated using non-compartmental models.
dTCApFs powder for solution for injection is supplied as a lyophilized 5 mL vial containing either 15 mg (7.5 mg/mL) or 10 mL vial containing 80 mg (40 mg/mL) of the active substance with 4.8% mannitol, for reconstitution to a final volume of 2 mL with water for injection per vial as described above. The reconstituted 2 mL vial of dTCApFs powder for solution for injection must thereafter be diluted to a final volume 100 mL in aqueous Dextrose 5% for infusion for dose levels up to and including 48 mg/m2. For dose levels above 48 mg/m2, the final dilution volume was 250 mL. dTCApFs for injection was administered intravenously (iv) during 60 minutes.
PK parameters, including AUC (0-24), Cmax, Cmin, Tmax and t1/2 are estimated using non-compartmental models. Comparisons across dose levels are made to assess proportionality.

[2] = Safety and tolerability (adverse events, DLT, MTD), phase I study; type: in vivo, human
From the text: The present clinical study is a formal open label phase I dose escalation study. The primary objective was to determine the maximum tolerated dose (MTD) and safety profile of dTCApFs. Assessments included drug exposure, adverse events (AEs; graded according to the Common Terminology Criteria for Adverse Events (CTCAE), and characterization of dose-limiting toxicities (DLTs). Other objectives included assessment of serum levels of angiogenic factors after dTCApFs administration, pharmacokinetics (PK) and pharmacodynamics (PD) analyses, as well as assessment of receptor staining and tumor response. […]
Subjects with evaluable or measurable disease are assessed according to the response evaluation criteria in solid tumors (RECIST) version 1.1 every 2 cycles, where a cycle is defined as 4 weeks of treatment with three administrations per week. Tumor lesion measurements and changes from baseline are summarized by cycle and dose cohort.

CC(C)C[C@@H](NC(=O)[C@H](NC(=O)[C@@H](CO)NC(=O)[C@H]1CCCN1C(=O)[C@@H](CC(C)C)NC(=O)[C@@H](Cc1ccccc1)NC(=O)[C@@H](Cc1ccccc1)NC(=O)[C@H](NC(=O)[C@@H](Cc1c[nH]c2ccccc12)NC(=O)[C@H](N)Cc1c[nH]c2ccccc12)[C@H](C)O)[C@H](C)O)C(=O)N[C@H](Cc1c[nH]c2ccccc12)C(=O)N[C@H](CCC(=O)O)C(=O)N[C@H](CCCNC(=N)N)C(=O)N[C@H](CCCCN)C(=O)O [dTCApFs, Trp Trp Thr Phe Phe Leu Pro Ser Thr Leu Trp Glu Arg Lys] (H-[dW][dW][dT][dF][dF][dL][dP][dS][dT][dL][dW][dE][dR][dK]-OH; N-terminus and C-terminus assumed)
1: Adverse event Grade 1: Bowel obstruction ([2]; 6 mg/m^2, n = 3) | Adverse event Grade 1: GI hemorrhage ([2]; 6 mg/m^2, n = 3) | Adverse event Grade 3: Bowel obstruction ([2]; 6 mg/m^2, n = 3) | Adverse event Grade 3: GI hemorrhage ([2]; 6 mg/m^2, n = 3) | Adverse event Grade 1: Abdominal pain ([2]; 12 mg/m^2, n = 3) | Adverse event Grade 1: Fatigue ([2]; 12 mg/m^2, n = 3) | Adverse event Grade 1: Hypertension ([2]; 12 mg/m^2, n = 3) | Adverse event Grade 1: Neuropathy ([2]; 12 mg/m^2, n = 3) | Adverse event Grade 2: Cough ([2]; 12 mg/m^2, n = 3) | Adverse event Grade 2: Urinary tract infection ([2]; 12 mg/m^2, n = 3) | Adverse event Grade 3: Diarrhea ([2]; 12 mg/m^2, n = 3) | Adverse event Grade 3: Hypertension ([2]; 12 mg/m^2, n = 3) | Adverse event Grade 1: Hypertension ([2]; 24 mg/m^2, n = 3) | Adverse event Grade 1: Neuropathy ([2]; 24 mg/m^2, n = 3)
3: Adverse event Grade 1: Anemia ([2]; 6 mg/m^2, n = 3) | Adverse event Grade 1: Hypertension ([2]; 6 mg/m^2, n = 3)
2: Adverse event Grade 1: Vomiting ([2]; 6 mg/m^2, n = 3) | Adverse event Grade 3: Hypertension ([2]; 6 mg/m^2, n = 3) | Adverse event Grade 1: Diarrhea ([2]; 12 mg/m^2, n = 3) | Adverse event Grade 2: Pain, leg ([2]; 12 mg/m^2, n = 3) | Adverse event Grade 1: Abdominal pain ([2]; 24 mg/m^2, n = 3)
0: Adverse event Grade 1: Abdominal pain ([2]; 6 mg/m^2, n = 3) | Adverse event Grade 1: Dehydration ([2]; 6 mg/m^2, n = 3) | Adverse event Grade 1: Diarrhea ([2]; 6 mg/m^2, n = 3) | Adverse event Grade 1: Fatigue ([2]; 6 mg/m^2, n = 3) | Adverse event Grade 1: Increased INR ([2]; 6 mg/m^2, n = 3) | Adverse event Grade 1: Neuropathy ([2]; 6 mg/m^2, n = 3) | Adverse event Grade 2: ALT increase ([2]; 6 mg/m^2, n = 3) | Adverse event Grade 2: AST increase ([2]; 6 mg/m^2, n = 3) | Adverse event Grade 2: Bilirubin increase ([2]; 6 mg/m^2, n = 3) | Adverse event Grade 2: Cough ([2]; 6 mg/m^2, n = 3) | Adverse event Grade 2: Liver dysfunction ([2]; 6 mg/m^2, n = 3) | Adverse event Grade 2: Pain, leg ([2]; 6 mg/m^2, n = 3) | Adverse event Grade 2: Pain, upper back ([2]; 6 mg/m^2, n = 3) | Adverse event Grade 2: Pruritus ([2]; 6 mg/m^2, n = 3) | Adverse event Grade 2: Urinary tract infection ([2]; 6 mg/m^2, n = 3) | Adverse event Grade 2: Urticaria ([2]; 6 mg/m^2, n = 3) | Adverse event Grade 3: Bilirubin increase ([2]; 6 mg/m^2, n = 3) | Adverse event Grade 3: Diarrhea ([2]; 6 mg/m^2, n = 3) | Adverse event Grade 3: Increased INR ([2]; 6 mg/m^2, n = 3) | Adverse event Grade 4: Vomiting ([2]; 6 mg/m^2, n = 3) | Adverse event Grade 1: Anemia ([2]; 12 mg/m^2, n = 3) | Adverse event Grade 1: Bowel obstruction ([2]; 12 mg/m^2, n = 3) | Adverse event Grade 1: Dehydration ([2]; 12 mg/m^2, n = 3) | Adverse event Grade 1: GI hemorrhage ([2]; 12 mg/m^2, n = 3) | Adverse event Grade 1: Increased INR ([2]; 12 mg/m^2, n = 3) | Adverse event Grade 1: Vomiting ([2]; 12 mg/m^2, n = 3) | Adverse event Grade 2: ALT increase ([2]; 12 mg/m^2, n = 3) | Adverse event Grade 2: AST increase ([2]; 12 mg/m^2, n = 3) | Adverse event Grade 2: Bilirubin increase ([2]; 12 mg/m^2, n = 3) | Adverse event Grade 2: Liver dysfunction ([2]; 12 mg/m^2, n = 3) | Adverse event Grade 2: Pain, upper back ([2]; 12 mg/m^2, n = 3) | Adverse event Grade 2: Pruritus ([2]; 12 mg/m^2, n = 3) | Adverse event Grade 2: Urticaria ([2]; 12 mg/m^2, n = 3) | Adverse event Grade 3: Bilirubin increase ([2]; 12 mg/m^2, n = 3) | Adverse event Grade 3: Bowel obstruction ([2]; 12 mg/m^2, n = 3) | Adverse event Grade 3: GI hemorrhage ([2]; 12 mg/m^2, n = 3) | Adverse event Grade 3: Increased INR ([2]; 12 mg/m^2, n = 3) | Adverse event Grade 4: Vomiting ([2]; 12 mg/m^2, n = 3) | Adverse event Grade 1: Anemia ([2]; 24 mg/m^2, n = 3) | Adverse event Grade 1: Bowel obstruction ([2]; 24 mg/m^2, n = 3) | Adverse event Grade 1: Dehydration ([2]; 24 mg/m^2, n = 3) | Adverse event Grade 1: Diarrhea ([2]; 24 mg/m^2, n = 3) | Adverse event Grade 1: Fatigue ([2]; 24 mg/m^2, n = 3) | Adverse event Grade 1: GI hemorrhage ([2]; 24 mg/m^2, n = 3) | Adverse event Grade 1: Increased INR ([2]; 24 mg/m^2, n = 3) | Adverse event Grade 1: Vomiting ([2]; 24 mg/m^2, n = 3) | Adverse event Grade 2: ALT increase ([2]; 24 mg/m^2, n = 3) | Adverse event Grade 2: AST increase ([2]; 24 mg/m^2, n = 3) | Adverse event Grade 2: Bilirubin increase ([2]; 24 mg/m^2, n = 3) | Adverse event Grade 2: Cough ([2]; 24 mg/m^2, n = 3) | Adverse event Grade 2: Liver dysfunction ([2]; 24 mg/m^2, n = 3)
linearly related to dose: relation of t1/2, Cmax and AUC0 to dose [1]
